“Also recorded” adds a separate entry of the source.
What was measured:
HCT116 cells = assay: rAAV-mediated gene targeting of the CCR5 locus in HCT116 cells, correct targeting scored by diagnostic PCR of G418-resistant clones; format: cell-based, human
Method: The human colon cancer cell line HCT116 was obtained from the American Type Culture Collection and maintained in McCoy's 5A media (Mediatech Inc.) containing 10% heat inactivated fetal calf serum (Cambrex), 2 mM L-glutamine, 100 U/ml penicillin and […] streptomycin (Invitrogen). The cells were grown at 37° C. in a humidified incubator with 5% CO2. Cell lines derived from correct targeting events were grown either in the presence of 1 mg/ml G418 or 1 μg/mL puromycin.
The targeting vectors, Ku70-Neo (Fattah et al., DNA Repair, 2008, 7:762-774) and CCR5-Neo (Fattah et al., PNAS, 2008, 105:8703-8708), were constructed by using the rAAV system as described (Kohli et. al., Nucl. Acids Res., 2004, 32:e3). All virus packaging and infections were performed as described (Kohli et. al., Nucl. Acids Res., 2004, 32:e3).
Genomic DNA for PCR screening was isolated by using phenol extraction followed by ethanol precipitation. DNA-PKcs- and CCR5-targeting events were identified by PCR using conditions described elsewhere (Ruis et. al., Mol. Cell. Biol., 2008, 28:6182-6195; Kohli et. al., Nucl. Acids Res., 2004, 32:e3). The primers used to screen for DNA-PKcs targeting events were LArmR, […] (SEQ ID NO:5) and PKcs81-83F1, […]. (SEQ ID NO:6) The primers used to screen for CCR5 targeting events were CF, GCACCATGCTTGACCCAG (SEQ ID NO:7) and NR, […] (SEQ ID NO:8). […]

DNA-PK complex = biological target: T1, DNA-PK complex (Homo sapiens, UniProt P78527); assay: DNA-PK complex kinase activity in extracts of treated cells, standard p53 peptide assay; format: cell-based; settings: HCT116 cells treated with 10 μM at time 0 and at 4 hr post-infection
T1 construct: whole cell extracts were prepared from a portion of the cells and assayed for DNA-PK complex kinase activity; endogenous in cells; host or cells: HCT116 (controls: MO59J, MO59K)
Method: Nuclear extracts were incubated on ice for 15 min with preswollen dsDNA-cellulose (Sigma). Nuclear extract (100 μg) was used with each sample. Following incubation on ice, the samples were washed twice in Z′ 0.05 buffer (25 mM HEPES-KOH, 50 mM KCl, 10 mM MgCl2, 20% glycerol, 0.1% IGEPAL™, 1 mM dithiothreitol). After the washing steps, the samples were centrifuged and the precipitate was resuspended in 100 μl Z′ 0.05 buffer. […] The wild-type peptide can be phosphorylated by DNA-PK at the serine residue, while the mutant peptide is not recognized by DNA-PK. Following incubation, polyacrylamide gel electrophoresis was carried out. The gel was vacuum dried and exposed to X-ray film. The amount of phosphorylated peptide was quantified using a phosphorimager.

O=c1cc(N2CCOCC2)oc2c(-c3cccc4c3sc3ccccc34)cccc12 [NU7441, 8-dibenzothiophen-4-yl-2-morpholin-4-yl-chromen-4-one] was tested, and the “increase of frequency of gene targeting” value (HCT116 cells; DNA-PKcs kinase inhibition by NU7441, rAAV CCR5 vector, compared to wild-type cells) was about 7 fold, the “correct gene targeting frequency” value (HCT116 cells; HCT116, 10 μM NU7441 at time 0 and again at 4 hr post-infection, rAAV CCR5 vector, 17 of 229 G418-resistant clones) was 7.4% and the “duration of DNA-PK / DNA-PKcs inhibition” value (DNA-PK complex) was “a matter of hours; also recorded: several hours”. For the same molecule, the DNA-PK activity (DNA-PK complex; whole cell extracts) was “nearly completely ablated”.
